Activity calls are given as the source filed them.
Experiments:
[1] = Counterscreen for inhibitors of Trypanosoma brucei methionyl tRNA synthetase (MetRS): Luminescence-based cell-based high throughput dose response assay to identify compounds that are cytotoxic to Jurkat human T lymphocyte cells.; assay type: functional
[2] = target: T1, Methionyl-tRNA synthetase, putative (Trypanosoma brucei brucei, UniProt Q38C91); assay type: functional, Trypanosoma brucei brucei strain 927/4 GUTat10.1
T1 sequence (Q38C91 whole entry): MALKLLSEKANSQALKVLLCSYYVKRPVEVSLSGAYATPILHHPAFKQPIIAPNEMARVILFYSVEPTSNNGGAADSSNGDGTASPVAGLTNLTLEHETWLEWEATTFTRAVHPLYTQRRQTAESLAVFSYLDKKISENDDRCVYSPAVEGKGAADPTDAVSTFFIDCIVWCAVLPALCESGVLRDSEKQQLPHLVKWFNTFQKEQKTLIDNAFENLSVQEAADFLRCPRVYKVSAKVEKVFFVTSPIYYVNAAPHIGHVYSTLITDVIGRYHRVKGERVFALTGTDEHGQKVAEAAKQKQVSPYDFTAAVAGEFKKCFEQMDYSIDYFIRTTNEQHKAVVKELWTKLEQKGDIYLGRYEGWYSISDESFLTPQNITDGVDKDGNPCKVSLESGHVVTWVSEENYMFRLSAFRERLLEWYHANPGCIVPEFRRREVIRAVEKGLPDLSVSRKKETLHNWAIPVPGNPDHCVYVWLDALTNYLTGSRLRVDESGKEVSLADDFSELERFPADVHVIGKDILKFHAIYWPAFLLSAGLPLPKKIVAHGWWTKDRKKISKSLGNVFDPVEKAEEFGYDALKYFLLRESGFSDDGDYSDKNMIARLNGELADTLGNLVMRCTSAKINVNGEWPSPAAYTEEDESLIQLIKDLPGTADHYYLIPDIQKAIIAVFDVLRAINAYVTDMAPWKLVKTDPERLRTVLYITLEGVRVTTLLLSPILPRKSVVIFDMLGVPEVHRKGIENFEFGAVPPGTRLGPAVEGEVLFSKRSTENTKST

[3] = target: T1, Methionyl-tRNA synthetase, putative; assay type: functional, Trypanosoma brucei brucei strain 927/4 GUTat10.1; remark: listed apart in the source
[4] = Late stage counterscreen for inhibitors of Trypanosoma brucei methionyl tRNA synthetase (MetRS): Luminescence-based cell-based high throughput dose response assay to identify compounds that are cytotoxic to Jurkat human T lymphocyte cells.; assay type: functional
Kallikrein-7 = Kallikrein-7 (Homo sapiens, UniProt P49862); test: Fluorescence Intensity-based biochemical primary high throughput dose response assay to identify activators of kallikrein-7 (K7) zymogen.
Paired box protein Pax-8 = Paired box protein Pax-8 (Homo sapiens, UniProt Q06710); test: PAX8 transcriptional activity inhibition in RMG-I – RMG-I cells, luciferase, cherry-pick, dose response (AID 687027); assay type: functional, cell-based;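 also: luciferase reporter driven by Pax8 target thyroperoxidase promoter measured by SteadyGlo luminescence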
[5] = IGROV1 cell killing – plate reader, dry powder samples, PAX8 inhibitor project, dose response (AID 743043); assay type: functional, cell-based; conditions: IGROV-1
[6] = toxicity toward immortalized ovarian surface epithelium – cell-based, plate reader, dry powder samples, cytotoxicity control for PAX8 inhibitor project, dose response (AID 743045); assay type: functional
[7] = OVCAR8 cell viability loss – plate reader, dry powder samples, PAX8 project, dose response (AID 743197); assay type: functional, cell-based; conditions: OVCAR-8
[8] = OVCAR-3 cell viability loss – plate reader, dry powder samples, PAX8 inhibitor project, dose response (AID 743044); assay type: functional, cell-based
[9] = viability loss in HEK293T cells – cell-based, CellTiter-Glo luminescence, dry powder, set 6, cytotoxicity control, dose response (AID 651949); assay type: functional; conditions: HEK293
[10] = HepG2 hepatoma cell viability loss – plate reader, dry powder, cytotoxicity control, dose response (AID 651947); assay type: functional, cell-based
[11] = inhibitors of non-replicating M. tuberculosis, dose response, luciferase, dry powder (AID 651620); assay type: functional; conditions: Mycobacterium tuberculosis
[12] = inhibitors of non-replicating M. tuberculosis, dose response, luciferase, dry powder (AID 651619); assay type: functional; conditions: Mycobacterium tuberculosis
[13] = rise of 2N DNA cells, HeLa – IC50, dose response (AID 1117349); assay type: functional, cell-based
INS1 = test: INS-1E survival protection against cytokine death – cell-based, luminescence, retest, dose response (AID 449756); assay type: functional; conditions: Rattus norvegicus;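 also: cell death triggered by IL-1 beta plus TNF-alpha plus IFN-gamma mixture; protective hits raise ATP signal compared with cytokine alone wells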
Protein Wnt-3a = Protein Wnt-3a (Mus musculus, UniProt P27467); test: antagonism of Wnt3a pathway luciferase reporter – Wnt-LIGHT cells, luminescence, selectivity assay for Gli-SUFU antagonist project, dose response (AID 651570); assay type: functional; conditions: read-out: IC50_Mean;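 also: Wnt-LIGHT reporter cells stimulated with conditioned medium from Wnt3a-producing cells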
[14] = rise of 4N DNA cells, HeLa – IC50, dose response (AID 1117351); assay type: functional, cell-based
[15] = A Cell-Based Confirmatory Screen for Compounds that Inhibit VEEV, TC-83 (2).; assay type: functional
[16] = A Cell-Based Counter Screen testing Compounds that Inhibit VEEV TC-83, in strain KU V3526.; assay type: functional
[17] = A Cell-Based Confirmatory Screen for Compounds that Inhibit VEEV, TC-83 (8).; assay type: functional
Vero [18] = test: cells; assay type: functional; conditions: Chlorocebus sabaeus
Vero [19] = test: cells; assay type: functional, cell-based; conditions: Chlorocebus sabaeus
[20] = target: E3 ubiquitin-protein ligase UHRF1 (Homo sapiens, UniProt Q96T88); test: Counterscreen for inhibitors of 5-meCpG-binding domain protein 2 (MBD2): TRFRET-based biochemical high throughput dose response assay to identify inhibitors of binding of ubiquitin-like with PHD and ring finger domains 1 (UHRF1) to methylated oligonucleotide.
Galanin receptor type 3 = target: T2, Galanin receptor type 3 (Homo sapiens, UniProt O60755); test: Fluorescence-based cell-based primary high throughput dose response assay to identify antagonists of the Galanin Receptor 3 (GalR3).; assay type: functional
T2 sequence (O60755 whole entry): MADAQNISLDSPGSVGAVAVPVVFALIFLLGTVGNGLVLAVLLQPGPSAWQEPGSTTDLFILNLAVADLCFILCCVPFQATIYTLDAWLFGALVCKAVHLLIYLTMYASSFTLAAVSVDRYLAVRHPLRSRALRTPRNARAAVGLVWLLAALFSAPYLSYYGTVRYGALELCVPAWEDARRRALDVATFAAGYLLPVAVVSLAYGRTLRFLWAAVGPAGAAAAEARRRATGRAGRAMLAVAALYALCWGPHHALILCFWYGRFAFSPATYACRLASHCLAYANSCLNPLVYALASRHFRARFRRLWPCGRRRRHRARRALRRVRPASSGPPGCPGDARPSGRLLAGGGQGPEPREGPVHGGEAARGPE

BJ [21] = test: BJ-TERT fibroblast viability loss – cell-based, RAS-independent, luminescence, dose response (AID 1933); assay type: functional; conditions: Homo sapiens
BJ [22] = test: cells; assay type: functional, cell-based; conditions: Homo sapiens
BJ [23] = test: BJ-TERT-LT-ST fibroblast viability loss – cell-based, RAS-independent, luminescence, dose response (AID 1935); assay type: functional; conditions: Homo sapiens;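 also: BJ fibroblasts immortalized with TERT plus LT and ST oncogenes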
[24] = viability loss in HepG2 liver cells – cell-based, ATP luminescence, cherry-pick, set 6, cytotoxicity control, dose response (AID 1053125); assay type: functional
cells [25] = conditions: HEK293
cells [26] = conditions: A549
[27] = DRD fibroblast viability loss – cell-based, non-viral oncogenic, luminescence, dose response (AID 1934); assay type: functional; conditions: Homo sapiens
cells [28] = assay type: functional, cell-based; conditions: HEK-CNG
Leucine aminopeptidase = target: T3, Leucine aminopeptidase (Plasmodium falciparum 3D7, UniProt Q8IL11); test: P. falciparum M17LAP inhibitors, primary screen, biochemical, fluorogenic H-Leu-NHMec substrate, 1536-well (AID 1619); assay type: functional
T3 sequence (Q8IL11 whole entry): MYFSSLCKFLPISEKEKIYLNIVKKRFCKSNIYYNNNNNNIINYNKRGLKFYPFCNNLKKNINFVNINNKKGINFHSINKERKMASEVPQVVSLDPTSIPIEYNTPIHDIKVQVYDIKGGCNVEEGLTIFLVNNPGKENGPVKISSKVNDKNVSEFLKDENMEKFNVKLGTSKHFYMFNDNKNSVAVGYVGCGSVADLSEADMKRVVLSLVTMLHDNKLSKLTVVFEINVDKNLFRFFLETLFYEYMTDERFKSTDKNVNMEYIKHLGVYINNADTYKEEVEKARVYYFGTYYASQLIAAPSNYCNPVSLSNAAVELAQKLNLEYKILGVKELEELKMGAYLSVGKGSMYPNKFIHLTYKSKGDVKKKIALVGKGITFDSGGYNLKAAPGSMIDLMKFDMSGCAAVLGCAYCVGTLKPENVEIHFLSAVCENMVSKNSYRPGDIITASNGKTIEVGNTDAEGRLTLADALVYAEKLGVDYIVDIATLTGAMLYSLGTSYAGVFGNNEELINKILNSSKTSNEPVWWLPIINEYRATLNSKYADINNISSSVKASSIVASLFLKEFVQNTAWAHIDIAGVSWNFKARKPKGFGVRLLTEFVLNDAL

[29] = target: T4, Oxysterols receptor LXR-beta (Homo sapiens, UniProt P55055); assay type: functional, cell-based;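 also: Cell-based luminescence dose-response assay of agonist activity at LXR, run as a confirmatory counterscreen to a daf-12 agonist screen; HEK293 cells with Gal4-LXR fusion and GAL4-driven luciferase reporter; agonist potency from rising luciferase signal of a Gal4-LXR reporter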
T4 sequence (P55055 whole entry): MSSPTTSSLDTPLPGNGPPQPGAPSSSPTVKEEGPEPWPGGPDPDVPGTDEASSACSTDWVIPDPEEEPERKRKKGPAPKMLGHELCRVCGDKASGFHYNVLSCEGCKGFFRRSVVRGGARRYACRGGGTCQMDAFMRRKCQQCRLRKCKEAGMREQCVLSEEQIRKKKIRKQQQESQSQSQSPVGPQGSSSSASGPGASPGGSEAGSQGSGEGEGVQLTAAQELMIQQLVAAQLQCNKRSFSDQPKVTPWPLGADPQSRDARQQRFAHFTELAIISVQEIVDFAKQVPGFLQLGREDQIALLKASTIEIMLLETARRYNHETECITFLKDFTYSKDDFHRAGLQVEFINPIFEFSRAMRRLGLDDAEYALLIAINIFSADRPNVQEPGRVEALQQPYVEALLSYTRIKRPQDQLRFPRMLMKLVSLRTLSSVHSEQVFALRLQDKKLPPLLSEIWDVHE

[30] = Luminescence Cell-Based Dose Response HTS to Identify Inhibitors of 5'UTR Stem-Loop Driven Prion Protein mRNA Translation in H4 Neuroglioblastoma Cells. [Related pubchem assays: 1827 (Project Summary), 1813 (Primary HTS)]; assay type: functional
[31] = A549 cell cytotoxicity, dose response, cytotoxicity control, plate reader, cherry-pick, antagonist series (AID 743412); assay type: functional, cell-based
[32] = blockade of melanocortin 4 receptor signaling – cell-based, plate reader, cherry pick, counter-screen for LGR2 antagonist project, dose response (AID 743444); assay type: functional;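 also: transfected HEK 293 cells stimulated with alpha-MSH peptide; potency of inhibitors of the alpha-MSH evoked signal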
[33] = blockers of bursicon-stimulated LGR2 cAMP reporter – cell-based, HEK293, CRE-luciferase reporter, cherry pick, set 2, dose response (AID 743343); assay type: functional;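 also: transfected cells were stimulated with diluted bursicon conditioned medium after compound addition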
cells [34] = test: cells
[35] = toxicity toward HepG2 liver cells – cell-based, plate reader, cherry-pick, antagonist series, cytotoxicity control, dose response (AID 743416); assay type: functional
[36] = target: NAD-dependent protein deacylase sirtuin-5, mitochondrial (Homo sapiens, UniProt Q9NXA8); test: blockers of sirtuin-5 peptide desuccinylation – biochemical, fluorescence imaging, cherry-pick, set 6, dose response (AID 720597)
[37] = LMP1-induced NF-kB luciferase signal inhibition – cell-based, EBV LMP1, dry powder, set 2, dose response (AID 624361); assay type: functional

Paired box protein Pax-8, sequence (Q06710 whole entry): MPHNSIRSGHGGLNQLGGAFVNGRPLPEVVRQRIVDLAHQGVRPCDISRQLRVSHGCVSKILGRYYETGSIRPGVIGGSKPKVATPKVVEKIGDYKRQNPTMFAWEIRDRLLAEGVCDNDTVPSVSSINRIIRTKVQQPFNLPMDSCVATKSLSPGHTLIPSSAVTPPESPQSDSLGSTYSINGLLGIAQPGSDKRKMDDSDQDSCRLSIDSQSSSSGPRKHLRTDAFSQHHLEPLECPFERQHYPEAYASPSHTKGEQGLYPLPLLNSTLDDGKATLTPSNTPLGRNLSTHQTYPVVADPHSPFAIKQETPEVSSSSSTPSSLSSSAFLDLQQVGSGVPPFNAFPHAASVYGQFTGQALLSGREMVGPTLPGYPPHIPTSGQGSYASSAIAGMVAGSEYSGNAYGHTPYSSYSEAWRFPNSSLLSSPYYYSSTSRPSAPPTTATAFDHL
Protein Wnt-3a, sequence (P27467 whole entry): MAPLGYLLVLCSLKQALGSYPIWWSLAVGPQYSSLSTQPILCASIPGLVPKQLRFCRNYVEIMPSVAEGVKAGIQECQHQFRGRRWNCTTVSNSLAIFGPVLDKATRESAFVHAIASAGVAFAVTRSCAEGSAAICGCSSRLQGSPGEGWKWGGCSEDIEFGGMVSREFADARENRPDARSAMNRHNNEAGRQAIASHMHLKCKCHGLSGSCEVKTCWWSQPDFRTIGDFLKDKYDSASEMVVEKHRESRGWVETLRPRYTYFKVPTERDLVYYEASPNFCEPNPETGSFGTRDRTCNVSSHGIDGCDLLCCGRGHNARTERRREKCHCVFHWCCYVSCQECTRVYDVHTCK
NAD-dependent protein deacylase sirtuin-5, mitochondrial, sequence (Q9NXA8 whole entry): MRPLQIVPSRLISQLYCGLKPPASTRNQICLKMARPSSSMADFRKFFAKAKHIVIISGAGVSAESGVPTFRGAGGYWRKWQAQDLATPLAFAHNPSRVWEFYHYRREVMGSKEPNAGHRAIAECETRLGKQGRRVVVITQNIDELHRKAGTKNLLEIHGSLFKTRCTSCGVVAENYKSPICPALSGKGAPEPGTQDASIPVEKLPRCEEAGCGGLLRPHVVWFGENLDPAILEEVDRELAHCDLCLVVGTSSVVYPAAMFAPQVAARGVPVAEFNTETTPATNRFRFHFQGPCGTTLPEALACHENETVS
E3 ubiquitin-protein ligase UHRF1, sequence (Q96T88 whole entry, the tested form may be a part): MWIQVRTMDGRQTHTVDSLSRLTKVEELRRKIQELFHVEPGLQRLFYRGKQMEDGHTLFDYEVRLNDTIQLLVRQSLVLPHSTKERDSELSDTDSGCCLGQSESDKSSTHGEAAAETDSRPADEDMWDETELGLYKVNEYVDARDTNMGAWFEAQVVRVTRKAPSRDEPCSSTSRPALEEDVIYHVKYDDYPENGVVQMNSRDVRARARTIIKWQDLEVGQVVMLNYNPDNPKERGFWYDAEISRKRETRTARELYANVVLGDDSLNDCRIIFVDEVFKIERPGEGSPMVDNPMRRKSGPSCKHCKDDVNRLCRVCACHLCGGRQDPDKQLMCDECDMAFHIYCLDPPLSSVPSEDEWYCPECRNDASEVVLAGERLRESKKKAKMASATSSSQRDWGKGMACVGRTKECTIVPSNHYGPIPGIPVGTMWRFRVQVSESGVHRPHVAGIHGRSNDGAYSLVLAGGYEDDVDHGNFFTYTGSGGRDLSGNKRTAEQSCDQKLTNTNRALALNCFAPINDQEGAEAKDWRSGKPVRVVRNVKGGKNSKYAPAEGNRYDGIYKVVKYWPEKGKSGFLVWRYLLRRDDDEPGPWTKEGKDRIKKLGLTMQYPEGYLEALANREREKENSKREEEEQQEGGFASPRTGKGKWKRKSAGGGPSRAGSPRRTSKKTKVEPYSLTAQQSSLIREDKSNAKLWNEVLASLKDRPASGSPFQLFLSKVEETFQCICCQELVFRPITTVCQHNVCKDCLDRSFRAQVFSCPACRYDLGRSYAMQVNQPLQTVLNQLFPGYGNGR
Kallikrein-7, sequence (P49862 whole entry): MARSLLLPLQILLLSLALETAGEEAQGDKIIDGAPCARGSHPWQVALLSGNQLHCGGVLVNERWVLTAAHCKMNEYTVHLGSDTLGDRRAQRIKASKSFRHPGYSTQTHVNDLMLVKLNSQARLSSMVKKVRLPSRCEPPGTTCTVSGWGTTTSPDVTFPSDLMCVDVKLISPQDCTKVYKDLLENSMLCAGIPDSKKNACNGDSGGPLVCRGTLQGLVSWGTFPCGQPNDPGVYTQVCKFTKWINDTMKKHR

Structure (SMILES): CCO[C@H]1OC(C(=O)NCc2nc3ccccc3[nH]2)=C[C@@H](c2ccc(Br)cc2)[C@@H]1CCCO
- IC50 [1]: 83.3 µM (inactive)
- IC50 [2]: 8.41 µM (active)
- IC50 [3]: 5.73 µM (active)
- IC50 [4]: 57 µM (inactive)

Structure (SMILES): Cc1ccc2nc(NCC(=O)O)nc(-c3ccccc3)c2c1
- EC50 (Kallikrein-7): 14.5 µM (inactive)

Structure (SMILES): COc1cccc(S(=O)(=O)N2CC[C@@H]3[C@@H](CO)Nc4ccc(-c5ccccc5OC)cc4[C@@H]32)c1
- AC50 (Paired box protein Pax-8): 10.6 µM (active)
- AC50 [5]: 36.5 µM (active)
- AC50 [6]: 33 µM (active)
- AC50 [7]: 31.1 µM (active)
- AC50 [8]: 19.6 µM (active)

Structure (SMILES): [O-][S+](Cc1cn(Cc2ccc(F)cc2)nn1)c1nnc(-c2ccc(Cl)cc2)o1 (stereo not drawn)
- AC50 [9]: 17.2 µM (active)
- AC50 [10]: 15.1 µM (active)

Structure (SMILES): COc1ccccc1-c1nnc(SCc2ccccn2)o1
- IC90 [11]: 31 µM (active)
- IC90 [12]: 31 µM (active)

Structure (SMILES): CCCCCCC[N+](CC)(CC)CCCCc1ccc(Cl)cc1
- IC50 [13]: > 10 µM (inactive)
- AC50 (INS1): 4.29 µM (active)
- IC50 (Protein Wnt-3a): 2.74 µM (active)
- IC50 [14]: > 10 µM (inactive)

Structure (SMILES): O=c1nc(Nc2ccc(OCc3ccccc3)cc2)sc2ncccc12
- IC50 [15]: 2.79 µM (active)
- IC50 [16]: 2.38 µM (active)
- IC50 [17]: 0.94 µM (active)
- CC50 (Vero [18]): > 25 µM (active)
- IC50 (Vero [19]): 2.86 µM (active)

Structure (SMILES): CC(=O)Nc1sc2c(c1-c1nc3ccccc3s1)CCN(C(C)C)CC2
- IC50 [20]: 16.9 µM (inactive)

Structure (SMILES): COc1ccc(N2C(C)=CC(=Cc3sc4ccccc4[n+]3C)C=C2C)cc1
- IC50 (Galanin receptor type 3): 0.246 µM (active)
- EC50 (BJ [21]): 0.359 µM (inconclusive)
- EC50 (BJ [22]): 1.38 µM (active)
- EC50 (BJ [23]): 4 µM (inconclusive)
- AC50 [24]: 14.3 µM (active)
- AC50 (cells [25]): 3.36 µM (active)
- AC50 (cells [26]): 0.315 µM (active)
- EC50 [27]: 2.06 µM (inconclusive)
- EC50 (cells [28]): > 29.9 µM (inactive)
- IC50 (Leucine aminopeptidase): 60.3 µM (active)

Structure (SMILES): Cc1ccc2[nH]c(CSc3nc(C)ccc3C#N)nc2c1
- EC50 [29]: > 67.5 µM (inactive)
- EC50 [30]: > 120 µM (not active)
- AC50 [31]: > 52 µM (inactive)
- AC50 [32]: 33.5 µM (active)
- AC50 [33]: 30.8 µM (active)
- EC50 (cells [34]): > 67.5 µM (inactive)
- AC50 [35]: > 52 µM (inactive)

Structure (SMILES): Cc1noc(C)c1S(=O)(=O)Nc1ccc2c(c1)C(=O)N([C@@H](C)CO)C[C@@H](C)[C@@H](CN(C)Cc1ccc(C(F)(F)F)cc1)OCCCC[C@@H](C)O2
- AC50 [36]: > 15 µM (inactive)
- AbsAC35 [37]: 38.34 µM

— ChEMBL document CHEMBL1201862, “PubChem BioAssay data set” (2004)
